SMILES strings stand for the structures.

The test system of data set [1] is patient who had loss of taste and smell from COVID-19. As to the kind of experiment: Psychophysical smell test, forced-choice, three-stimuli, stepwise-staircase technique (detection and recognition thresholds for four odors). Format: in vivo, human. An excerpt:
The Patient initially reported their sensory dysfunction as either loss of taste (i.e., flavor) and/or smell function. This subjective response was documented by objective psychophysical measurements of olfactory function administered to each patient by use of a forced-choice, three-stimuli, stepwise-staircase technique in a fixed, controlled design (1, 2). Efficacy of this technique and results of testing were previously documented in a double-blind clinical trial (2). Four odors were used; they were pyridine (dead-fish odor), nitrobenzene (bitter-almond odor), thiophene (petroleum-like odor) and amyl acetate (banana-oil odor). Detection thresholds (DT), and recognition thresholds (RT) values for each odor were determined as previously described (1, 2). Thresholds were converted into bottle units (BU) as previously described (2) and results reported as M of correct responses for each odor in each treatment group. References: (1) Henkin, R. I. Evaluation and treatment of human olfactory dysfunction, in Otolaryngology (English, G. M. Ed.), Lip pincott, Philadelphia, 1993, Vol. 2, pp. 1-86. (2) Henkin, R. I., Schecter, P. J., Friedewald, W. T., DeMets, D. L., Raff, M. S. A double blind study of the effects of zinc sulfate on taste and smell dysfunction. Amer. J. Med. Sci. 1976; 272: 285-299.
(§1) Theophylline was administered to a patient who had loss of taste and smell from COVID-19. A formulation containing 80 μg of theophylline was administered via two actuations from nasal spray device once per day. Prior to the initial administration of theophylline, a baseline smell test was performed. A follow-up smell test was performed 3 months after the initial administration. […] The patient's detection threshold (DT) and recognition threshold (RT) for pyridine (Pyr), nitrobenzene (NO2B), thiophene (Thio) and amyl acetate (AA) was determined before treatment (pre) and after treatment (3M). In all four odorant tests, the patient's detection threshold and recognition threshold improved. An improvement of 1 bottle unit means that a patient could detect and/or recognize an odorant that was 10 times lower in concentration, when compared to baseline. For example, the recognition threshold (RT) of AA improved by 8 bottle units, also equivalent to an improvement of 8 orders of magnitude. In this case, the patient could detect a concentration of AA that was 10^8 lower in concentration. Bottle unit numbers that are 5 or lower are considered to be in the range of normal.

Data set [2] shares this test system. As to the kind of experiment: Side effects reported during intranasal theophylline treatment. Format: in vivo, human. Conditions: 80 μg theophylline via nasal spray once per day, 3 months. On the procedure:
as §1

Setting [3] is: 3 months after initial administration, 80 μg theophylline nasal spray once per day, Pre value 10.
Where [4] appears, read: 3 months after initial administration, 80 μg theophylline nasal spray once per day, Pre value 11.
The mark [5] stands for this setting: 3 months after initial administration, 80 μg theophylline nasal spray once per day, Pre value 12.

With `Cn1c(=O)c2[nH]cnc2n(C)c1=O` [theophylline], in data set [1] (setting [3]), the “DT Thio (detection threshold, thiophene)” value turned out to be 4 bottle units and the “RT Thio (recognition threshold, thiophene)” value was found to be 4 bottle units. Moreover, in data set [1] (setting [4]), the “DT AA (detection threshold, amyl acetate)” value is 4 bottle units; the “DT NO2B (detection threshold, nitrobenzene)” value stood at 9 bottle units; the “RT Pyr (recognition threshold, pyridine)” value is 7 bottle units. Moreover, in data set [1] (3 months after initial administration, 80 μg theophylline nasal spray once per day, Pre value 11, 5 or lower is normal), the “DT Pyr (detection threshold, pyridine)” value amounted to 7 bottle units. Moreover, in data set [1] (setting [5]), the “RT AA (recognition threshold, amyl acetate)” value worked out at 4 bottle units and the “RT NO2B (recognition threshold, nitrobenzene)” value turned out to be 9 bottle units. Further, the “improvement of recognition threshold (RT) of AA” value in data set [1] (3 months vs baseline, 80 μg theophylline nasal spray once per day) turned out to be 8 bottle units. Moreover, in data set [1] (3 months vs baseline, 1 bottle unit = 10 times lower concentration), the “factor by which the detectable concentration of AA was lower” value was 10^8. Moreover, in data set [1] (3 months vs baseline, pyridine, nitrobenzene, thiophene, amyl acetate), the “detection threshold and recognition threshold in all four odorant tests” value is recorded as “improved”. For the same molecule, the side effects entry in data set [2] is listed as “No side effects”.

These data come from patent US20250009649A1, “Implants for Loss of Taste and Smell” (Cyrano Therapeutics, Inc., priority 2021, published 2025).
